From ChEMBL document CHEMBL3352260, “Identification and development of biphenyl substituted iminosugars as improved dual glucosylceramide synthase/neutral glucosylceramidase inhibitors” (J Med Chem, 2014)
pIC50: −log10 of the molar value.

Experiments:
[1] = target: T1, Ceramide glucosyltransferase (Homo sapiens, UniProt Q16739)
T1 sequence (Q16739 whole entry): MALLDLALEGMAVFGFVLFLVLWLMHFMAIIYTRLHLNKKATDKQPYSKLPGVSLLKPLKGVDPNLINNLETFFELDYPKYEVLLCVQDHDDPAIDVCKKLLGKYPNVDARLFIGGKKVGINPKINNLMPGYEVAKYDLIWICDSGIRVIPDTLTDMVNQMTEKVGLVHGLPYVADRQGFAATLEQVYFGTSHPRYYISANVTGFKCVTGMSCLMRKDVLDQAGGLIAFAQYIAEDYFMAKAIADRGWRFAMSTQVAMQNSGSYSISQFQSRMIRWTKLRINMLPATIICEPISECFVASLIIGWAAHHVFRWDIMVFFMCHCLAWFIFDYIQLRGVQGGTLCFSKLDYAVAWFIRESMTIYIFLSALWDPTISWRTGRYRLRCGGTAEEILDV

Maltase-glucoamylase = Maltase-glucoamylase (Homo sapiens, UniProt O43451); assay: Inhibition of intestinal maltase (unknown origin)
[2] = target: Sucrase-isomaltase, intestinal (Homo sapiens, UniProt P14410); assay: Inhibition of intestinal sucrase (unknown origin)
Beta-glucosidase = target: T2, Beta-glucosidase (Homo sapiens, UniProt Q9HCG7)
T2 sequence (Q9HCG7 whole entry): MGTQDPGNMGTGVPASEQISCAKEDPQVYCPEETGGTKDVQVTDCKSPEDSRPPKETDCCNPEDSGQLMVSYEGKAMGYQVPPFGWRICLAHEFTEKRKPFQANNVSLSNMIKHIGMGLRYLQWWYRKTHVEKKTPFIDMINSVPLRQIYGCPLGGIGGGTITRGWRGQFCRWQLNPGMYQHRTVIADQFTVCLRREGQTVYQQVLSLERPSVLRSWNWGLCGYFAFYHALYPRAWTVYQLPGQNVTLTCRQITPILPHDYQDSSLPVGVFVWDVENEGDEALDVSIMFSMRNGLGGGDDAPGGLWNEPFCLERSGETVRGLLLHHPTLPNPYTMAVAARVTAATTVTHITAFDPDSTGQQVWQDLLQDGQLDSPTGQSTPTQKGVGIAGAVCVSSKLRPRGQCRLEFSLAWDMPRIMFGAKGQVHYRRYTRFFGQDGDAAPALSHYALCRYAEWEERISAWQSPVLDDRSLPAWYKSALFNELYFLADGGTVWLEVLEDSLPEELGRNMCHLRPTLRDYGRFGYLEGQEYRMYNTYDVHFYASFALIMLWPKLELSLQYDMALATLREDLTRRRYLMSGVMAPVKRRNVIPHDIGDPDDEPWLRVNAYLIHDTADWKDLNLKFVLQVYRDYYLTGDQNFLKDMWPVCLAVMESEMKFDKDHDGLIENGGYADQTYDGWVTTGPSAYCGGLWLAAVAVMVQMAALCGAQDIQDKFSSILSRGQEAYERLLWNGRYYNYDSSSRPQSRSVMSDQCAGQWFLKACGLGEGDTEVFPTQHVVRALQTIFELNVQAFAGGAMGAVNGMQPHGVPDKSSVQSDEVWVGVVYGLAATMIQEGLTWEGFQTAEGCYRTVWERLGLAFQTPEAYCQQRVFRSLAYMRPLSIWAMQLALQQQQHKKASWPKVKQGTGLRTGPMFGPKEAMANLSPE

[3] = target: T3, Lysosomal acid glucosylceramidase (Homo sapiens, UniProt P04062)
T3 sequence (P04062 whole entry): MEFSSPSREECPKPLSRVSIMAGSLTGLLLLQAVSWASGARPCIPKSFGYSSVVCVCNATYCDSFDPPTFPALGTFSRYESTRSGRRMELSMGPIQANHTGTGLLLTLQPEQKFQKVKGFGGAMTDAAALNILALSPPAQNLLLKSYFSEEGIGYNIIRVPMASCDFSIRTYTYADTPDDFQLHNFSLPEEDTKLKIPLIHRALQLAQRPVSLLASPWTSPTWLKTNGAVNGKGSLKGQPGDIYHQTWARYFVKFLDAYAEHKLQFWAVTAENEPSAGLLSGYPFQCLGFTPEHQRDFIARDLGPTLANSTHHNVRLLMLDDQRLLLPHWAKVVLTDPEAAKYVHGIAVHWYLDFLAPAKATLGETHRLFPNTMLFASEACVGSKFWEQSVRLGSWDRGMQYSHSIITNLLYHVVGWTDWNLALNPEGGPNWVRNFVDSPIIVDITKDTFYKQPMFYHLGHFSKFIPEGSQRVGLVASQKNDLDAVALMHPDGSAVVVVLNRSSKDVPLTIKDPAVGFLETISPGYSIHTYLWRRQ

[4] = target: Lactase/phlorizin hydrolase (Homo sapiens, UniProt P09848); assay: Inhibition of intestinal lactase (unknown origin)

Chain of Sucrase-isomaltase, intestinal (P14410 2-1007 limits assumed): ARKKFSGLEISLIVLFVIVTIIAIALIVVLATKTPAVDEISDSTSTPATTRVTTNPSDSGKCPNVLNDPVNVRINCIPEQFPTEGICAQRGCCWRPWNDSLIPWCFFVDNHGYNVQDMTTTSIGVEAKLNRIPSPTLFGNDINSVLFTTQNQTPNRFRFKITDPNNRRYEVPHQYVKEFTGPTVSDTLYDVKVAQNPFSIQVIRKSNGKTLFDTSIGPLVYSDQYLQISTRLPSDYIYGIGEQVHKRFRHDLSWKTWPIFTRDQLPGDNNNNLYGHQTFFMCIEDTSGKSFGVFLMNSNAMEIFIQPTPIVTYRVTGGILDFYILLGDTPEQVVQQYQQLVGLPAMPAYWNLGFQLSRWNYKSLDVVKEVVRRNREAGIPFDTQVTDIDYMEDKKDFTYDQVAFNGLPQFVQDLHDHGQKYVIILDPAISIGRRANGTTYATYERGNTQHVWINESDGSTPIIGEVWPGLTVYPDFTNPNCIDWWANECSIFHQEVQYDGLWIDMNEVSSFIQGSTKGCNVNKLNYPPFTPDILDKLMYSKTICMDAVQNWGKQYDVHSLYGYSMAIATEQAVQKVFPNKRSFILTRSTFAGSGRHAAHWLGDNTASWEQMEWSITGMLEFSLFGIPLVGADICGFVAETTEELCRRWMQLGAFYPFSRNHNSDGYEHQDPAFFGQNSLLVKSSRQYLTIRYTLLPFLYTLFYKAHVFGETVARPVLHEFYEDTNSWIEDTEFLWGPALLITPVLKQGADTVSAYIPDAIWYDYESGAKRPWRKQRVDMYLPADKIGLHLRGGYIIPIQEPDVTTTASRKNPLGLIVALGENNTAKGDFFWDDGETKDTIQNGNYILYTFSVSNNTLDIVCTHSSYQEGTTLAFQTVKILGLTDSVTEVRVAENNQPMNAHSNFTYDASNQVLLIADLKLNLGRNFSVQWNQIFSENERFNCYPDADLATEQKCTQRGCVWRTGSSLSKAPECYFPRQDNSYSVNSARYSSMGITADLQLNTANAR
Chain of Sucrase-isomaltase, intestinal (P14410 1008-1827 limits assumed): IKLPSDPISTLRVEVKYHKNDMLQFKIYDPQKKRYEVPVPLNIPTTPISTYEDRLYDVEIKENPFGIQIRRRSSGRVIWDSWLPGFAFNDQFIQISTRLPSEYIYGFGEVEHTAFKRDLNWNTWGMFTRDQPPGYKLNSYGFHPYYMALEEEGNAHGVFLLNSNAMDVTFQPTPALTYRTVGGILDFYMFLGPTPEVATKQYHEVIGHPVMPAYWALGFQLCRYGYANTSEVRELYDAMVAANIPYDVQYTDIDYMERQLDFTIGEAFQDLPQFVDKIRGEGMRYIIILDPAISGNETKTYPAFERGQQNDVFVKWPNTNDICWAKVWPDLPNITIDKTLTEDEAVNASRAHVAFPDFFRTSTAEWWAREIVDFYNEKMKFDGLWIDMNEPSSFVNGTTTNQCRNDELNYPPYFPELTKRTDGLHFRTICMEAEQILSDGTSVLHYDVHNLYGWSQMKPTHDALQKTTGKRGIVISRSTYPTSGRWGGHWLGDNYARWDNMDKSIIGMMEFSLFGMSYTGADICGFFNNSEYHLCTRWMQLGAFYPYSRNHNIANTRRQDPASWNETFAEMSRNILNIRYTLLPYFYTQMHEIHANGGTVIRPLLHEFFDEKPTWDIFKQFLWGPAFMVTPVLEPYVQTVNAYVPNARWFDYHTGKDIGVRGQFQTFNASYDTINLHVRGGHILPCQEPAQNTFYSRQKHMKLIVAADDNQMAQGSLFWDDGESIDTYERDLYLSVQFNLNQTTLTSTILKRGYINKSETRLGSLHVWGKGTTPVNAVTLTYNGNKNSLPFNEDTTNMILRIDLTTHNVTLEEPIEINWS
Chain of Maltase-glucoamylase (O43451 whole entry): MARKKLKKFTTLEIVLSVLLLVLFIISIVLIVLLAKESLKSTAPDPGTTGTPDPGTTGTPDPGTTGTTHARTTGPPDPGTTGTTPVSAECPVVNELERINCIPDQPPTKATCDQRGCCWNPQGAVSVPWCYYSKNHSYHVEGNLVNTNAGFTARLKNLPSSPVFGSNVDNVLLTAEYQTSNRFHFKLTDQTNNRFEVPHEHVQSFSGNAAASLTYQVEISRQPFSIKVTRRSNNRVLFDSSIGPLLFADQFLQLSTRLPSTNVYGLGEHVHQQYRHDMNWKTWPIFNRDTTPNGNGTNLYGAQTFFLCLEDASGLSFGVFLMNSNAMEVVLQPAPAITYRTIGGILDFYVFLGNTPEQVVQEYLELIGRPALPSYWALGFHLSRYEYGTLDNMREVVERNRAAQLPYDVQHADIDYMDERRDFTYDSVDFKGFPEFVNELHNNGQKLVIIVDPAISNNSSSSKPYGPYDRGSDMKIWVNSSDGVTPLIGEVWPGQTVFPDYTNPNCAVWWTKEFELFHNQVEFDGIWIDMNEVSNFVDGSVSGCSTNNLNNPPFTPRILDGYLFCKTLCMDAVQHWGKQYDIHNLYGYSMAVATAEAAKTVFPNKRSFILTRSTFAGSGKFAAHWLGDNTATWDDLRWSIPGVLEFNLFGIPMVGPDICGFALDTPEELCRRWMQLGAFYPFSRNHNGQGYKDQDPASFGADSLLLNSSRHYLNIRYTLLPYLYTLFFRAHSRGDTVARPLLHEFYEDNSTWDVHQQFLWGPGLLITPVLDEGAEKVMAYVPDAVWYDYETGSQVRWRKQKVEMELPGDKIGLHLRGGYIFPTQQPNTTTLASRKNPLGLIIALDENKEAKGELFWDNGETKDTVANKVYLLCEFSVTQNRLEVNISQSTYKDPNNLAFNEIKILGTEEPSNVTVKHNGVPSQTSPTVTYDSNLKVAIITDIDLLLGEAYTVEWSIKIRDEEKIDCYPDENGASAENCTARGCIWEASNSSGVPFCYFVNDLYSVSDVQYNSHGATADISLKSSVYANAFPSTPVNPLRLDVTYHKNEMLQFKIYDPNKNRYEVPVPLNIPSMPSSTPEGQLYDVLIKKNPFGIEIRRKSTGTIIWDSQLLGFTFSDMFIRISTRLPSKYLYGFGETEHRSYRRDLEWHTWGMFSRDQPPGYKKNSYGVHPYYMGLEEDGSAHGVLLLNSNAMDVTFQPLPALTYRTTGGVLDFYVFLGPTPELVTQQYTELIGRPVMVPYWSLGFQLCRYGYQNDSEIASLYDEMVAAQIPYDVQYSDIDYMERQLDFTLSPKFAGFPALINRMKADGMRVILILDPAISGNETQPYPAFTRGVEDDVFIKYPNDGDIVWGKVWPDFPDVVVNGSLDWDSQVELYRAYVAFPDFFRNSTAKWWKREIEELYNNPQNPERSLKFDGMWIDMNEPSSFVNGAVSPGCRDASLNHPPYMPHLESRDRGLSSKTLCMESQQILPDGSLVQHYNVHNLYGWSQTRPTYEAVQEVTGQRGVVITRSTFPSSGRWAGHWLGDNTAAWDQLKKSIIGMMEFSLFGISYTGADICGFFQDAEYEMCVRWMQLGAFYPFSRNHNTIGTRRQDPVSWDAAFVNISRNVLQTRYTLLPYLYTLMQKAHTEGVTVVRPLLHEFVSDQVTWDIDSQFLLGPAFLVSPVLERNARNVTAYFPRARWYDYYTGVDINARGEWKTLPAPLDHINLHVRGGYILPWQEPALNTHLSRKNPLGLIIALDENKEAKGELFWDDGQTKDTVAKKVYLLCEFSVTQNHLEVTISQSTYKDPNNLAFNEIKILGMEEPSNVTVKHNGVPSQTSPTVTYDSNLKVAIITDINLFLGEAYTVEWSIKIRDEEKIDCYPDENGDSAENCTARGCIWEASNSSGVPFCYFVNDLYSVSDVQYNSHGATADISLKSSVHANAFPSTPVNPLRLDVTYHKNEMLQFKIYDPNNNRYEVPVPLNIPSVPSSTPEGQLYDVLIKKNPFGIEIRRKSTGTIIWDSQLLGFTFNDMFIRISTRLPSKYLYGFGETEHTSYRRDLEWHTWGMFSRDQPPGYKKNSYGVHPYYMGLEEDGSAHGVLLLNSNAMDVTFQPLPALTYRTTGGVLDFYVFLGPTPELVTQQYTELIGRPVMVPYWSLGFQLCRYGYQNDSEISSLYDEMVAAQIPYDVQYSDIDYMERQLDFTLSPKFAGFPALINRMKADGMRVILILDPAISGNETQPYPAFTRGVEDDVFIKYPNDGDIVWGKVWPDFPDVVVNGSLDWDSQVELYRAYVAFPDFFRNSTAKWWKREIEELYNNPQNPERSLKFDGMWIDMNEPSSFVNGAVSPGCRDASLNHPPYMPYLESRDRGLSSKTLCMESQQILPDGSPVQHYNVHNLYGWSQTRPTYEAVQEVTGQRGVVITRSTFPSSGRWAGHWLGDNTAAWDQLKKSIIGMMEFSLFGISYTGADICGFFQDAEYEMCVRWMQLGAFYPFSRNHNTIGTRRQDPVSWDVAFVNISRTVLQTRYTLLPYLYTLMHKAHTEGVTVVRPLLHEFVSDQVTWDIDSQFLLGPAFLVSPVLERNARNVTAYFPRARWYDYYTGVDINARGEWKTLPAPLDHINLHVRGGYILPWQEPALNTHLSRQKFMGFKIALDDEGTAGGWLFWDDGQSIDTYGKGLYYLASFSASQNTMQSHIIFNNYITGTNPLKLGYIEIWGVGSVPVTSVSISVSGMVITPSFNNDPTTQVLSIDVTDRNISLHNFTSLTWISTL

pIC50 [1] | pIC50 (Maltase-glucoamylase) | pIC50 [2] | pIC50 (Beta-glucosidase) | pIC50 [3] | pIC50 [4] | SMILES
5.70 |  |  |  |  |  | OC[C@@H]1[C@@H](O)[C@H](O)[C@@H](O)CN1CCCCCOCc1ccc(-c2cccnc2)cc1
 | 5.70 | 6.60 |  |  |  | OC[C@@H]1[C@@H](O)[C@H](O)[C@@H](O)CN1CCCCCOCc1ccc(-c2ccccc2)cc1
6.30 |  |  | 8.40 | 5.82 |  | OC[C@@H]1[C@@H](O)[C@H](O)[C@@H](O)CN1CCCCCOCC1CCCCC1
 |  |  | 9.00 |  |  | OC[C@@H]1[C@@H](O)[C@H](O)[C@@H](O)CN1CCCCCOCc1ccc(-c2cccc(F)c2)cc1
 | < 4.00 | < 4.00 |  |  | 4.35 | C[C@@H](OCCCCCN1C[C@H](O)[C@@H](O)[C@H](O)[C@@H]1CO)c1ccc(-c2ccccc2)cc1
 |  |  | 7.82 |  |  | OC[C@@H]1[C@@H](O)[C@H](O)[C@@H](O)CN1CCCCCOCc1ccc(-c2ccc3c(c2)OCCCO3)cc1
 | 5.15 | 5.90 | 10.10 |  | 4.35 | OC[C@@H]1[C@@H](O)[C@H](O)[C@@H](O)CN1CCCCCOCc1ccc(-c2ccccc2)c(C(F)(F)F)c1
 | 5.60 | 6.60 | 10.10 |  | 4.52 | OC[C@@H]1[C@@H](O)[C@H](O)[C@@H](O)CN1CCCCCOCc1ccc(-c2ccccc2)cc1F
8.52 |  |  | 9.00 | 4.30 |  | OC[C@H]1[C@@H](O)[C@H](O)[C@@H](O)CN1CCCCCOCc1ccc2ccccc2c1
 |  |  | 8.70 | 6.30 |  | OC[C@@H]1[C@@H](O)[C@H](O)[C@@H](O)CN1CCCCCOCc1ccc(-c2ccc3c(c2)OCO3)cc1
7.10 |  |  | 8.70 | 5.00 |  | OC[C@H]1[C@@H](O)[C@H](O)[C@@H](O)CN1CCCCCOCC1C2CC3CC(C2)CC1C3 (stereo partly drawn)
 |  |  | 8.52 |  |  | COc1ccccc1-c1ccc(COCCCCCN2C[C@H](O)[C@@H](O)[C@H](O)[C@H]2CO)cc1
8.52 |  |  | 9.00 | 4.82 |  | OC[C@H]1[C@@H](O)[C@H](O)[C@@H](O)CN1CCCCCOCc1ccc2ccc3cccc4ccc1c2c34
 | < 4.00 | < 4.00 |  |  | 3.90 | OC[C@H]1[C@@H](O)[C@H](O)[C@@H](O)CN1CCCCCOCc1ccc(-c2ccccc2)cc1C(F)(F)F
 | < 4.00 | < 4.00 |  |  | 4.00 | OC[C@H]1[C@@H](O)[C@H](O)[C@@H](O)CN1CCCCCOCc1ccc(-c2ccccc2)c(C(F)(F)F)c1
 | 5.52 | 6.40 | 10.10 |  | 4.70 | OC[C@@H]1[C@@H](O)[C@H](O)[C@@H](O)CN1CCCCCOCc1ccc(-c2ccccc2)c(F)c1
6.40 |  |  | 7.82 | 4.40 |  | O=C(CCCCCN1C[C@H](O)[C@@H](O)[C@H](O)[C@@H]1CO)NC12CC3CC(CC(C3)C1)C2
 | < 4.00 | < 4.00 |  |  | 4.10 | OC[C@H]1[C@@H](O)[C@H](O)[C@@H](O)CN1CCCC(F)(F)COCc1ccc(-c2ccccc2)cc1
5.60 |  |  | 7.00 | 4.30 |  | CC(C)=CCC/C(C)=C/CC/C(C)=C/CCOCCCCCN1C[C@H](O)[C@@H](O)[C@H](O)[C@@H]1CO
5.70 |  |  | 7.60 | 5.00 |  | OC[C@@H]1[C@@H](O)[C@H](O)[C@@H](O)CN1CCCCCOCc1ccc(-c2cncnc2)cc1

pIC50 [1] | pIC50 (Maltase-glucoamylase) | pIC50 [2] | pIC50 (Beta-glucosidase) | pIC50 [3] | pIC50 [4] | SMILES
 | < 4.00 | < 4.00 |  |  | < 4.00 | C[C@H](OCCCCCN1C[C@H](O)[C@@H](O)[C@H](O)[C@@H]1CO)c1ccc(-c2ccccc2)cc1
6.12 |  |  | 9.00 | 6.52 |  | OC[C@@H]1[C@@H](O)[C@H](O)[C@@H](O)CN1CCCCCOCc1ccccc1
 | 5.82 | 6.70 |  |  | 4.70 | OC[C@@H]1[C@@H](O)[C@H](O)[C@@H](O)CN1CCCCCOCc1cccc(-c2ccccc2)c1
8.52 |  |  | 9.00 | 6.00 |  | OC[C@@H]1[C@@H](O)[C@H](O)[C@@H](O)CN1CCCCCOCc1ccc2ccccc2c1
6.52 |  |  | 9.00 | 6.40 |  | OC[C@@H]1[C@@H](O)[C@H](O)[C@@H](O)CN1CCCCCOCC1C2CC3CC(C2)CC1C3 (stereo partly drawn)
6.00 |  |  | 8.05 | 6.30 |  | O=C(CCCCCN1C[C@H](O)[C@@H](O)[C@H](O)[C@H]1CO)NC12CC3CC(CC(C3)C1)C2
6.60 |  |  | 8.60 | 5.30 |  | OC[C@H]1[C@@H](O)[C@H](O)[C@@H](O)CN1CCCCCCOCC12CC3CC(CC(C3)C1)C2
 | 5.10 | 5.82 |  |  | 4.30 | OC[C@@H]1[C@@H](O)[C@H](O)[C@@H](O)CN1CCCCCOCc1ccc(-c2ccccc2)cc1C(F)(F)F
7.40 |  |  | 7.52 | 6.60 |  | OC[C@@H]1[C@@H](O)[C@H](O)[C@@H](O)CN1CCCCCOCc1ccc(-c2ccc3c(c2)OCCO3)cc1
 | < 4.00 | < 4.00 |  |  | 4.22 | OC[C@H]1[C@@H](O)[C@H](O)[C@@H](O)CN1CCCCCOCc1ccc(-c2ccccc2)cc1F
 | 5.82 | 6.70 |  |  | 4.77 | OC[C@@H]1[C@@H](O)[C@H](O)[C@@H](O)CN1CCCCCOCc1ccccc1-c1ccccc1
6.70 |  |  | 8.52 | 5.00 |  | OC[C@H]1[C@@H](O)[C@H](O)[C@@H](O)CN1CCCCCOCc1ccccc1
 | < 4.00 | 4.02 |  |  | 4.60 | OC[C@H]1[C@@H](O)[C@H](O)[C@@H](O)CN1CCCCCOCc1ccccc1-c1ccccc1
 | < 4.00 | < 4.00 |  |  | 4.30 | OC[C@H]1[C@@H](O)[C@H](O)[C@@H](O)CN1CCCCCOCc1ccc(-c2ccccc2)c(F)c1 [NIZUBAGLUSTAT]
7.12 |  |  |  |  |  | OC[C@@H]1[C@@H](O)[C@H](O)[C@@H](O)CN1CCCCCOCc1ccc(-c2ccccc2F)cc1
6.52 |  |  | 8.70 | 6.70 |  | OC[C@@H]1[C@@H](O)[C@H](O)[C@@H](O)CN1CCCCCCOCC12CC3CC(CC(C3)C1)C2
8.52 |  |  | 8.52 | 6.30 |  | OC[C@@H]1[C@@H](O)[C@H](O)[C@@H](O)CN1CCCCCOCc1ccc2ccc3cccc4ccc1c2c34
 | < 4.00 | 4.15 |  |  |  | OC[C@H]1[C@@H](O)[C@H](O)[C@@H](O)CN1CCCCCOCc1ccc(-c2ccccc2)cc1
7.15 |  |  | 8.22 | 4.22 |  | OC[C@H]1[C@@H](O)[C@H](O)[C@@H](O)CN1CCCCCOCC1CCCCC1

SMILES | pIC50 [1] | pIC50 (Maltase-glucoamylase) | pIC50 [2] | pIC50 (Beta-glucosidase) | pIC50 [3] | pIC50 [4]
CC(C)CCC[C@@H](C)[C@H]1CC[C@H]2[C@@H]3CC=C4C[C@@H](OCCCCCN5C[C@H](O)[C@@H](O)[C@H](O)[C@@H]5CO)CC[C@]4(C)[C@H]3CC[C@]12C | 6.00 |  |  | 7.70 | 4.82 | 
CC(C)CCC[C@@H](C)[C@H]1CC[C@H]2[C@@H]3CC=C4C[C@@H](OCCCCCN5C[C@H](O)[C@@H](O)[C@H](O)[C@H]5CO)CC[C@]4(C)[C@H]3CC[C@]12C | 6.00 |  |  | 8.30 | 6.30 | 
